Converted amounts (≈) assume the structure as drawn.
Experiments:
[1] = cited from earlier work; for water solubility compared with puerarin: literature
[2] = literature; cited from earlier work
[3] = system: aorta vascular smooth muscle; settings: compared with puerarin, literature; cited from earlier work
in vivo = settings: in vivo, 50 mg/kg
Experimental: Embodiment 5: Metabokinetic Experiment of monofructosyl-β(2,6)-Puerarin in Blood
In HPLC analysis, DIONEX was used, with chromatographic column as Discovery HS C18 ([…], 5 μm), feeding specimen volume 20 μL, column temperature 30° C., the detector was UVD170U, with detection wavelength of 254 nm, flowing phase: A, water, B, chromatographic class methanol, A:B=80:20, at flow rate of 1 mL/min.
Sprague-Dawley mice (SD mice), with weight of 180-220 g, male and female in half, provided by Medical Experiment Center of Nantong University, with production permit No.: SCXK (Su) 20080010.
SD mice were randomly divided into 2 groups of 5 each, fasting for 12 hours before experiment. Puerarin and monofructosyl-β(2,6)-puerarin were respectively dissolved in 20% 1,2-PG normal saline, and injected into mouse caudal vein at a dosage of 50 mg/kg. After injection, at t=0 min, 4 min, 7 min, 17 min, 40 min, 60 min, 120 min and 180 min, 0.5 mL of blood was taken from orbit and put into centrifugal tubes treated with liquaemin, then it was immediately separated by centrifuging at 3000 rpm for 15 min, to separate out plasma for analysis.
Plasma of 100 μL was precisely taken and put into test tube, and 400 μL of methanol sedimented protein was added, they were mixed on vortex mixer for 5 min, then centrifuged at 10000 rpm for 10 min, and the supernatant was used for HPLC analysis.
The plasma concentration of the puerarin and monofructosyl-β(2,6)-puerarin specimens prepared as per 3.2 was obtained by calculation with external reference method. The data obtained were analyzed using pharmacokinetics statistic software.

myocardio ischemia mice [4] = assay: T wave amplitude variation in pituitrin acute myocardial ischemia model; format: in vivo, Sprague-Dawley mice (SD mice); settings: 50 mg/kg
Source text: (§1) Embodiment 6: […] Pituitrin injection was purchased from Nanjing Xinbai Pharmaceutical Co., Ltd., normal saline injection from Nanjing Xiaoying Pharmaceutical Co., Ltd., and DMSO, PG, and anhydrous ethanol were of chromatographic class. […] The data were presented with, and tested with t. P<0.05 indicates substantial difference, P<0.01 indicates very substantial difference; and P<0.001 indicates extremely substantial difference.

myocardio ischemia mice [5] = assay: Heart rate in pituitrin acute myocardial ischemia model; format: in vivo, Sprague-Dawley mice (SD mice); settings: 50 mg/kg
Source text: as §1

[6] = system: human breast cancer cell strain MDA-MB-231; assay: MDA-MB-231 cell toxicity test (MTT); format: cell-based; settings: 48 h; for OD value: MTT 490 nm
Experimental: MDA-MB-231 cells were cultured in an incubator at 37° C. with 5% CO2 saturated humidity in the RPMI-1640 complete culture medium containing inactivated fetal calf serum with volume fraction of 10%, 100 U penicillin and streptomycin. Take MDA-MB-231 cells in logarithmic phase (primary culture bottle) and discard the culture solution. […] Prepare the suspended solution of cells and adjust the cell concentration with appropriate amount of complete culture medium to 3×10^4/mL. Fed the cells into a tissue culture plate 96, with cell suspended liquid of 180 μL in each case, and put the culture plate into a cell incubator (37° C., 5% CO2) for conventional culture. When cells grew to 50%-70%, add drug liquid of different concentration. […] For DMSO solvent control group, add 20 μL of PBS containing […] and for the blank group, add 20 μL of PBS. For each drug concentration, 6 complex cases were provided. Put back the culture plate into the cell incubator, after 48 h, add 20 μL MTT (5 mg/mL) solution and continue to incubate it in the incubator for 4 h, then remove the supernatant and dry it with tissue, add 200 μL DMSO into each case and vibrate it in the rocker without light for 15 min, to allow the crystal to fully dissolve. Determine the light absorption at 490 nm with a fully automatic ELISA instrument, and calculate the average suppression rate, suppression rate (%)=(control group A490−test group A490)/control group A490), the experiment was repeated three times. Relevant analysis and Student t tests in Microsoft Excel 2003 were used, and data are presented in X±SD.

[7] = system: human chronmyelogenors leukemia cell strain K562; assay: K562 cell toxicity test (MTT); format: cell-based; settings: 48 h; for OD value: MTT 490 nm
Experimental: K-562 cells were cultured in an incubator at 37° C. with 5% CO2 saturated humidity in the RPMI-1640 complete culture medium containing inactivated calf serum with volume fraction of 10%, 100 U penicillin and streptomycin. […] For each drug concentration, 6 complex cases were provided. Put back the culture plate into the cell incubator, after 48 h, add 20 μL MTT (5 mg/mL) solution and continue to incubate it in the incubator for 4 h, then each case was added with triple liquid 100 μL, put it overnight to allow the crystal to fully dissolve. Vibrate it with oscillator for 20 min and determine the light absorption at 490 nm with a fully automatic ELISA instrument, and calculate the average suppression rate, suppression rate (%)=(control group A490−test group A490)/control group A490), the experiment was repeated three times. Relevant analysis and Student t tests in Microsoft Excel 2003 were used, and data are presented in X±SD.

physchem = settings: 25° C.
[8] = Solubility determination at 25° C.
[9] = both, Sprague-Dawley, mouse, iv

## O=c1c(-c2ccc(O)cc2)coc2c([C@@H]3O[C@H](CO)[C@@H](O)[C@H](O)[C@H]3O)c(O[C@@H]3O[C@H](CO)[C@@H](O)[C@H](O)[C@H]3O)ccc12 [7-O-glucoside puerarin]
[1]
  water solubility compared with puerarin: 18 times
[2]
  mean retaining time (MRT) relative to puerarin: 2.8 times
  plasma half-life (t1/2) relative to puerarin: 2 times

## O=c1c(-c2ccc(O)cc2)coc2c([C@@H]3O[C@H](CO[C@H]4O[C@H](CO)[C@@H](O[C@H]5O[C@H](CO)[C@@H](O)[C@H](O)[C@H]5O)[C@H](O)[C@H]4O)[C@@H](O)[C@H](O)[C@H]3O)c(O)ccc12 [maltosyl-α-(1,6)-puerarin]
[1]
  water solubility compared with puerarin: 168 times

## O=c1c(-c2ccc(O)cc2)coc2c([C@@H]3O[C@H](CO[C@H]4O[C@H](CO)[C@@H](O)[C@H](O)[C@H]4O)[C@@H](O)[C@H](O)[C@H]3O)c(O)ccc12 [glucosyl-α-(1, 6)-puerarin]
[1]
  water solubility compared with puerarin: 14 times

## semi-emulsified glycosyl-α-(1,4)-puerarin
[3]
  vasodilatation effect: could produce better vasodilatation effect than puerarin

## O=c1c(-c2ccc(O)cc2)coc2c([C@@H]3O[C@H](CO)[C@@H](O)[C@H](O)[C@H]3O)c(O)ccc12 [Puerarin, 7,4′-dyhydroxy-8-β-D-glucosyl isoflavone]
In vivo; [9]
  MRT inf: 20.6 min
  MRT last: 19.7 min
  clearance: 13 ± 3 mL/min/kg
  half-life: 17 ± 3.09 min
In vivo
  AUC (0-t): 4096.192 ± 973.839 mg/Lxmin
Myocardio ischemia mice [4]; 15 s after Pit
  T wave amplitude variation: 0.082 ± 0.052 mv
Myocardio ischemia mice [4]; 30 s after Pit
  T wave amplitude variation: 0.114 ± 0.096 mv
Myocardio ischemia mice [4]; 1 min after Pit
  T wave amplitude variation: 0.118 ± 0.086 mv
Myocardio ischemia mice [4]; 2 min after Pit
  T wave amplitude variation: 0.132 ± 0.096 mv
Myocardio ischemia mice [4]; 5 min after Pit
  T wave amplitude variation: 0.118 ± 0.075 mv
Myocardio ischemia mice [4]; 10 min after Pit
  T wave amplitude variation: 0.074 ± 0.061 mv
Myocardio ischemia mice [5]; 5 s
  Heart rate: 512 ± 36 time · min^−1
Myocardio ischemia mice [5]; 10 s
  Heart rate: 469 ± 32 time · min^−1
Myocardio ischemia mice [5]; 15 s
  Heart rate: 437 ± 63 time · min^−1
Myocardio ischemia mice [5]; 30 s
  Heart rate: 411 ± 69 time · min^−1
Myocardio ischemia mice [5]; 1 min
  Heart rate: 379 ± 85 time · min^−1
Myocardio ischemia mice [5]; 2 min
  Heart rate: 379 ± 72 time · min^−1
Myocardio ischemia mice [5]; 5 min
  Heart rate: 384 ± 53 time · min^−1
Myocardio ischemia mice [5]; 10 min
  Heart rate: 434 ± 51 time · min^−1
Myocardio ischemia mice [5]; Normal
  Heart rate: 484 ± 33 time · min^−1
[6]; 0.5 μmol/L
  Average suppression rate: 10.68%
  OD value: 0.632 ± 0.056
[6]; 1 μmol/L
  Average suppression rate: 11.67%
  OD value: 0.624 ± 0.053
[6]; 5 μmol/L
  Average suppression rate: 12.43%
  OD value: 0.619 ± 0.090
[6]; 10 μmol/L
  Average suppression rate: 13.77%
  OD value: 0.610 ± 0.039
[6]; 50 μmol/L
  Average suppression rate: 24.92%
  OD value: 0.531 ± 0.066
[6]; 100 μmol/L
  Average suppression rate: 33.06%
  OD value: 0.473 ± 0.034
[6]; 150 μmol/L
  Average suppression rate: 47.47%
  OD value: 0.372 ± 0.037
[6]; 200 μmol/L
  Average suppression rate: 61.91%
  OD value: 0.619 ± 0.042
[7]; 1 μmol/L
  Average suppression rate: 10.65%
  OD value: 0.917 ± 0.031
[7]; 5 μmol/L
  Average suppression rate: 7.52%
  OD value: 0.949 ± 0.023
[7]; 10 μmol/L
  Average suppression rate: 9.46%
  OD value: 0.929 ± 0.030
[7]; 20 μmol/L
  Average suppression rate: 10.68%
  OD value: 0.916 ± 0.056
[7]; 50 μmol/L
  Average suppression rate: 22.73%
  OD value: 0.793 ± 0.083
[7]; 100 μmol/L
  Average suppression rate: 30.89%
  OD value: 0.709 ± 0.038
[7]; 150 μmol/L
  Average suppression rate: 36.65%
  OD value: 0.650 ± 0.039
[7]; 200 μmol/L
  Average suppression rate: 54.19%
  OD value: 0.470 ± 0.027
[1]; background statement
  solubility in water: 6240 µg/mL (≈ 15 mM)
physchem
  solubility: 5200 µg/mL (≈ 12.5 mM)

## O=c1c(-c2ccc(O)cc2)coc2c(C3OC(CO)C(O)C(O)C3O)c(OC3OC(COC4OC(CO)C(O)C(O)C4O)C(O)C(O)C3O)ccc12 (stereo not drawn) [7-O-isomaltoside puerarin]
[1]
  water solubility compared with puerarin: 100 times

## O=c1c(-c2ccc(O)cc2)coc2c([C@@H]3O[C@H](CO[C@]4(CO)O[C@H](CO[C@]5(CO)O[C@H](CO)[C@@H](O)[C@@H]5O)[C@@H](O)[C@@H]4O)[C@@H](O)[C@H](O)[C@H]3O)c(O)ccc12 [bifructosyl-β(2,6)-puerarin]
[8]
  solubility: 280800 µg/mL (≈ 379 mM)
[8]; puerarin 5.2 g/L
  solubility relative to puerarin: 54 times

From US8598128B2, “Fructosylated puerarin, and preparation method and use thereof” (priority 2010, dated 2013)
